Reference: the NIST ThermoML archive (doi:10.1016/j.jct.2007.07.005)

Assay: xn = mol fraction of the nth substance listed
Conditions: Fluid (supercritical or subcritical phases), vibrating tube

CCCCCO [pentan-1-ol] + O=C=O
Conditions | mass density [kg/m3]
352.79 K, 11040 kPa, x2 = 0.4651 | 785.81
352.79 K, 12030 kPa, x2 = 0.4651 | 787.74
352.79 K, 13014 kPa, x2 = 0.4651 | 789.67
352.79 K, 13996 kPa, x2 = 0.4651 | 791.51
352.79 K, 15009 kPa, x2 = 0.4651 | 793.37
352.79 K, 16021 kPa, x2 = 0.4651 | 795.22
352.79 K, 17023 kPa, x2 = 0.4651 | 797.01
352.79 K, 18036 kPa, x2 = 0.4651 | 798.78
352.79 K, 19033 kPa, x2 = 0.4651 | 800.49
352.79 K, 20034 kPa, x2 = 0.4651 | 802.15
352.79 K, 21019 kPa, x2 = 0.4651 | 803.78
352.79 K, 22005 kPa, x2 = 0.4651 | 805.38
352.79 K, 23048 kPa, x2 = 0.4651 | 807.02
352.79 K, 24005 kPa, x2 = 0.4651 | 808.54
352.8 K, 9062 kPa, x2 = 0.3624 | 787.17
352.8 K, 10017 kPa, x2 = 0.3624 | 788.44
352.8 K, 10962 kPa, x2 = 0.3624 | 789.67
352.8 K, 12014 kPa, x2 = 0.3624 | 790.98
352.8 K, 13057 kPa, x2 = 0.3624 | 792.31
352.8 K, 13992 kPa, x2 = 0.3624 | 793.46
352.8 K, 14992 kPa, x2 = 0.3624 | 794.66
352.8 K, 16050 kPa, x2 = 0.3624 | 795.91
352.8 K, 16062 kPa, x2 = 0.8573 | 704.48
352.8 K, 17018 kPa, x2 = 0.3624 | 797.04
352.8 K, 17045 kPa, x2 = 0.8573 | 717.71
352.8 K, 17979 kPa, x2 = 0.3624 | 798.17
352.8 K, 18036 kPa, x2 = 0.8573 | 728.91
352.8 K, 19024 kPa, x2 = 0.8573 | 738.63
352.8 K, 19050 kPa, x2 = 0.3624 | 799.37
352.8 K, 20029 kPa, x2 = 0.3624 | 800.46
352.8 K, 20047 kPa, x2 = 0.8573 | 747.71
352.8 K, 21012 kPa, x2 = 0.8573 | 755.39
352.8 K, 21035 kPa, x2 = 0.3624 | 801.59
352.8 K, 21985 kPa, x2 = 0.3624 | 802.63
352.8 K, 22013 kPa, x2 = 0.8573 | 762.78
352.8 K, 23021 kPa, x2 = 0.3624 | 803.75
352.8 K, 23034 kPa, x2 = 0.8573 | 769.78
352.8 K, 24022 kPa, x2 = 0.3624 | 804.82
352.8 K, 24038 kPa, x2 = 0.8573 | 776.16
352.8 K, 25026 kPa, x2 = 0.3624 | 805.9
352.8 K, 25052 kPa, x2 = 0.8573 | 782.21
352.81 K, 3095 kPa, x2 = 0.0816 | 772.79
352.81 K, 4022 kPa, x2 = 0.0816 | 773.74
352.81 K, 5003 kPa, x2 = 0.0816 | 774.75
352.81 K, 5979 kPa, x2 = 0.0816 | 775.73
352.81 K, 7007 kPa, x2 = 0.0816 | 776.72
352.81 K, 7981 kPa, x2 = 0.0816 | 777.7
352.81 K, 9053 kPa, x2 = 0.0816 | 778.72
352.81 K, 10025 kPa, x2 = 0.0816 | 779.66
352.81 K, 11031 kPa, x2 = 0.0816 | 780.6
352.81 K, 11999 kPa, x2 = 0.0816 | 781.51
352.81 K, 13023 kPa, x2 = 0.0816 | 782.45
352.81 K, 14012 kPa, x2 = 0.0816 | 783.34
352.81 K, 15005 kPa, x2 = 0.7274 | 763.67
352.81 K, 15006 kPa, x2 = 0.0816 | 784.24
352.81 K, 15032 kPa, x2 = 0.9216 | 609.93
352.81 K, 15993 kPa, x2 = 0.0816 | 785.1
352.81 K, 16001 kPa, x2 = 0.9216 | 637.91
352.81 K, 16021 kPa, x2 = 0.7274 | 769.33
352.81 K, 17044 kPa, x2 = 0.9216 | 660.91
352.81 K, 17045 kPa, x2 = 0.7274 | 774.53
352.81 K, 17064 kPa, x2 = 0.0816 | 786
352.81 K, 18013 kPa, x2 = 0.0816 | 786.86
352.81 K, 18017 kPa, x2 = 0.9216 | 678.45
352.81 K, 18023 kPa, x2 = 0.7274 | 779.16
352.81 K, 18992 kPa, x2 = 0.0816 | 787.69
352.81 K, 19030 kPa, x2 = 0.9216 | 693.91
352.81 K, 19050 kPa, x2 = 0.7274 | 783.67
352.81 K, 19999 kPa, x2 = 0.7274 | 787.59
352.81 K, 20017 kPa, x2 = 0.9216 | 707.27
352.81 K, 20032 kPa, x2 = 0.0816 | 788.58
352.81 K, 20998 kPa, x2 = 0.0816 | 789.4
352.81 K, 21041 kPa, x2 = 0.9216 | 719.46
352.81 K, 21063 kPa, x2 = 0.7274 | 791.77
352.81 K, 22012 kPa, x2 = 0.0816 | 790.22
352.81 K, 22020 kPa, x2 = 0.7274 | 795.33
352.81 K, 22043 kPa, x2 = 0.9216 | 730.24
352.81 K, 23032 kPa, x2 = 0.9216 | 740.03
352.81 K, 23038 kPa, x2 = 0.7274 | 798.99
352.81 K, 23043 kPa, x2 = 0.0816 | 791.09
352.81 K, 23982 kPa, x2 = 0.7274 | 802.22
352.81 K, 24064 kPa, x2 = 0.0816 | 791.93
352.81 K, 25028 kPa, x2 = 0.0816 | 792.72
352.81 K, 25068 kPa, x2 = 0.7274 | 805.8
352.86 K, 7013 kPa, x2 = 0.1347 | 777.29
352.86 K, 8003 kPa, x2 = 0.1347 | 778.24
352.86 K, 9042 kPa, x2 = 0.1347 | 779.29
352.86 K, 9997 kPa, x2 = 0.1347 | 780.21
352.86 K, 11043 kPa, x2 = 0.1347 | 781.23
352.86 K, 12025 kPa, x2 = 0.1347 | 782.2
352.86 K, 13003 kPa, x2 = 0.1347 | 783.16
352.86 K, 14006 kPa, x2 = 0.1347 | 784.13
352.86 K, 15015 kPa, x2 = 0.1347 | 785.07
352.86 K, 16005 kPa, x2 = 0.1347 | 786.01
352.86 K, 17031 kPa, x2 = 0.1347 | 786.94
352.86 K, 18022 kPa, x2 = 0.1347 | 787.86
352.86 K, 19009 kPa, x2 = 0.1347 | 788.74
352.86 K, 20022 kPa, x2 = 0.1347 | 789.63
352.86 K, 21024 kPa, x2 = 0.1347 | 790.52
352.86 K, 21995 kPa, x2 = 0.1347 | 791.37
352.86 K, 23030 kPa, x2 = 0.1347 | 792.28
352.86 K, 24029 kPa, x2 = 0.1347 | 793.15
352.86 K, 25004 kPa, x2 = 0.1347 | 793.98
352.88 K, 14062 kPa, x2 = 0.6054 | 787.97
352.88 K, 15034 kPa, x2 = 0.6054 | 790.53
352.88 K, 16029 kPa, x2 = 0.6054 | 793.07
352.88 K, 17048 kPa, x2 = 0.6054 | 795.6
352.88 K, 18046 kPa, x2 = 0.6054 | 798.05
352.88 K, 19026 kPa, x2 = 0.6054 | 800.32
352.88 K, 20030 kPa, x2 = 0.6054 | 802.6
352.88 K, 21058 kPa, x2 = 0.6054 | 804.93
352.88 K, 22056 kPa, x2 = 0.6054 | 807.03
352.88 K, 23049 kPa, x2 = 0.6054 | 809.11
352.88 K, 24065 kPa, x2 = 0.6054 | 811.21
352.88 K, 25092 kPa, x2 = 0.6054 | 813.29
362.58 K, 20013 kPa, x2 = 0.9757 | 578.28
362.58 K, 21042 kPa, x2 = 0.9757 | 600.7
362.58 K, 22020 kPa, x2 = 0.9757 | 619.68
362.58 K, 23010 kPa, x2 = 0.9757 | 637.03
362.58 K, 24034 kPa, x2 = 0.9757 | 653.33
362.58 K, 25047 kPa, x2 = 0.9757 | 667.94
362.59 K, 517 kPa, x2 = 0 | 759.7
362.59 K, 1023 kPa, x2 = 0 | 760.25
362.59 K, 2005 kPa, x2 = 0 | 761.26
